According to ChEMBL document CHEMBL1135251, “Oxime derivatives of sordaricin as potent antifungal agents” (Bioorg Med Chem Lett, 2002):
Values after ≈ are worked out from the molar mass of the structure shown.

Experiments:
[1] = system: Nakaseomyces glabratus; experiment: Minimum inhibitory concentration against Candida glabrata; format: functional
[2] = system: Candida albicans; experiment: Minimum inhibitory concentration against Candida albicans; format: functional
[3] = Therapeutic index (CC50/MIC) was determined
[4] = system: HEp-2; experiment: Cytotoxicity was evaluated against Hep-2 cells in vitro; format: functional; conditions: Homo sapiens
[5] = system: Cryptococcus neoformans; experiment: In vitro minimum inhibitory concentration against […]

SMILES | MIC [1] [µg/mL] | MIC [2] [µg/mL] | Therapeutic index [3] | CC50 [4] [µg/mL] | MIC [5] [µg/mL]
CCC(C)(C)CC1CC(C23C[C@@H]4[C@H](C)CC[C@H]4C4(C=O)CC2C=C(C(C)C)[C@@]34C(=O)O)=NO1 (stereo not given in full) | 1 (≈ 2.19 µM) | 4 (≈ 8.78 µM) | – | – | –
CC(C)C1=CC2CC3(C=O)[C@@H]4CC[C@@H](C)[C@H]4CC2(C2=NOC(CC#N)C2)[C@]13C(=O)O (stereo not given in full) | 128 (≈ 312 µM) | 128 (≈ 312 µM) | – | – | –
CC(C)C1=CC2CC3(C=O)[C@@H]4CC[C@@H](C)[C@H]4CC2(c2cc(CO)on2)[C@]13C(=O)O | > 128 | > 128 | – | – | –
CCCCC1CC(C23C[C@@H]4[C@H](C)CC[C@H]4C4(C=O)CC2C=C(C(C)C)[C@@]34C(=O)O)=NO1 (stereo not given in full) | 2 (≈ 4.68 µM) | 2 (≈ 4.68 µM) | – | – | –
CC(C)=CCO/N=C/C12C[C@@H]3[C@H](C)CC[C@H]3C3(C=O)CC1C=C(C(C)C)[C@@]23C(=O)O | 1 (≈ 2.42 µM) | 1 (≈ 2.42 µM) | 4.5 | 4.5 (≈ 10.9 µM) | –
CC(C)C1=CC2CC3(C=O)[C@@H]4CC[C@@H](C)[C@H]4CC2(/C=N/OCC2CCCCO2)[C@]13C(=O)O (stereo not given in full) | 8 (≈ 18 µM) | 2 (≈ 4.51 µM) | 4.5 | 9 (≈ 20.3 µM) | –
CCOCCO/N=C/C12C[C@@H]3[C@H](C)CC[C@H]3C3(C=O)CC1C=C(C(C)C)[C@@]23C(=O)O | 16 (≈ 38.3 µM) | 16 (≈ 38.3 µM) | 1.4 | 22 (≈ 52.7 µM) | –
CCOC(=O)C1CC(C23C[C@@H]4[C@H](C)CC[C@H]4C4(C=O)CC2C=C(C(C)C)[C@@]34C(=O)O)=NO1 (stereo not given in full) | 4 (≈ 9.02 µM) | 8 (≈ 18 µM) | – | – | –
CC(C)C1=CC2CC3(C=O)[C@@H]4CC[C@@H](C)[C@H]4CC2(/C=N/OCC2CCCCC2)[C@]13C(=O)O | 1 (≈ 2.26 µM) | 0.25 (≈ 0.566 µM) | 2.4 | 0.6 (≈ 1.36 µM) | –
CC[C@@H](C)CO/N=C/C12C[C@@H]3[C@H](C)CC[C@H]3C3(C=O)CC1C=C(C(C)C)[C@@]23C(=O)O | 0.5 (≈ 1.2 µM) | 0.25 (≈ 0.602 µM) | 11 | 2.7 (≈ 6.5 µM) | –
CCCCCO/N=C/C12C[C@@H]3[C@H](C)CC[C@H]3C3(C=O)CC1C=C(C(C)C)[C@@]23C(=O)O | 0.06 (≈ 0.144 µM) | 0.06 (≈ 0.144 µM) | 92 | 5.5 (≈ 13.2 µM) | 64 (≈ 154 µM)
CC(C)CO/N=C/C12C[C@@H]3[C@H](C)CC[C@H]3C3(C=O)CC1C=C(C(C)C)[C@@]23C(=O)O | 0.5 (≈ 1.25 µM) | 0.5 (≈ 1.25 µM) | 70 | 35 (≈ 87.2 µM) | –
CC#CCO/N=C/C12C[C@@H]3[C@H](C)CC[C@H]3C3(C=O)CC1C=C(C(C)C)[C@@]23C(=O)O | 32 (≈ 80.5 µM) | 8 (≈ 20.1 µM) | 2 | 16 (≈ 40.3 µM) | –
CC(C)C1=CC2CC3(C=O)[C@@H]4CC[C@@H](C)[C@H]4CC2(C2=NOC4OCCC24)[C@]13C(=O)O (stereo not given in full) | 8 (≈ 19.3 µM) | > 128 | – | – | –
CC(C)CCC1CC(C23C[C@@H]4[C@H](C)CC[C@H]4C4(C=O)CC2C=C(C(C)C)[C@@]34C(=O)O)=NO1 (stereo not given in full) | 4 (≈ 9.06 µM) | 1 (≈ 2.26 µM) | – | – | –
CC(C)C1=CC2CC3(C=O)[C@@H]4CC[C@@H](C)[C@H]4CC2(C2=NOC(CN4CCOCC4)C2)[C@]13C(=O)O (stereo not given in full) | > 128 | 16 (≈ 34 µM) | – | – | –
CC(C)C1=CC2CC3(C=O)[C@@H]4CC[C@@H](C)[C@H]4CC2(C2=NOC(C4CCCCC4)C2)[C@]13C(=O)O (stereo not given in full) | 2 (≈ 4.41 µM) | 2 (≈ 4.41 µM) | – | – | –

SMILES | MIC [1] [µg/mL] | MIC [2] [µg/mL] | Therapeutic index [3] | CC50 [4] [µg/mL] | MIC [5] [µg/mL]
CC(C)C1=CC2CC3(C=O)[C@@H]4CC[C@@H](C)[C@H]4CC2(C2=NOC4CCCCC24)[C@]13C(=O)O (stereo not given in full) | 1 (≈ 2.35 µM) | > 128 | – | – | –
Cc1ccccc1CO/N=C/C12C[C@@H]3[C@H](C)CC[C@H]3C3(C=O)CC1C=C(C(C)C)[C@@]23C(=O)O | 16 (≈ 35.6 µM) | 16 (≈ 35.6 µM) | – | – | –
CC(C)C1=CC2CC3(C=O)[C@@H]4CC[C@@H](C)[C@H]4CC2(C2=NOC(CO)C2)[C@]13C(=O)O (stereo not given in full) | > 128 | > 128 | – | – | –
CC(C)C1=CC2CC3(C=O)[C@@H]4CC[C@@H](C)[C@H]4CC2(/C=N/OCCCC(F)(F)F)[C@]13C(=O)O | 4 (≈ 8.78 µM) | 1 (≈ 2.2 µM) | 1.9 | 1.9 (≈ 4.17 µM) | –
CC(C)C1=CC2CC3(C=O)[C@@H]4CC[C@@H](C)[C@H]4CC2(C2=NOC(CC(C)(C)C)C2)[C@]13C(=O)O (stereo not given in full) | 1 (≈ 2.26 µM) | 2 (≈ 4.53 µM) | – | – | –
CC(C)C1=CC2CC3(C=O)[C@@H]4CC[C@@H](C)[C@H]4CC2(CO)[C@]13C(=O)O | > 128 | > 128 | – | – | –
CC(C)C1=CC2CC3(C=O)[C@@H]4CC[C@@H](C)[C@H]4CC2(C2=NOC(c4ccccc4)C2)[C@]13C(=O)O (stereo not given in full) | 2 (≈ 4.47 µM) | 16 (≈ 35.7 µM) | – | – | –
COCCOCCO/N=C/C12C[C@@H]3[C@H](C)CC[C@H]3C3(C=O)CC1C=C(C(C)C)[C@@]23C(=O)O | 128 (≈ 286 µM) | 8 (≈ 17.9 µM) | 5.7 | 46 (≈ 103 µM) | –
CCCCOC1CC(C23C[C@@H]4[C@H](C)CC[C@H]4C4(C=O)CC2C=C(C(C)C)[C@@]34C(=O)O)=NO1 (stereo not given in full) | 8 (≈ 18 µM) | 1 (≈ 2.25 µM) | – | – | –
Cc1noc(C)c1CO/N=C/C12C[C@@H]3[C@H](C)CC[C@H]3C3(C=O)CC1C=C(C(C)C)[C@@]23C(=O)O | 128 (≈ 282 µM) | > 128 | – | – | –
CC(C)C1=CC2CC3(C=O)[C@@H]4CC[C@@H](C)[C@H]4CC2(/C=N/OC2CCCCO2)[C@]13C(=O)O (stereo not given in full) | 1 (≈ 2.33 µM) | 0.5 (≈ 1.16 µM) | 66 | 33 (≈ 76.8 µM) | –
CC(C)C1=CC2CC3(C=O)[C@@H]4CC[C@@H](C)[C@H]4CC2(/C=N/OCc2ccccc2Cl)[C@]13C(=O)O | 8 (≈ 17 µM) | 2 (≈ 4.26 µM) | 0.7 | 1.4 (≈ 2.98 µM) | –
CC(C)CCO/N=C/C12C[C@@H]3[C@H](C)CC[C@H]3C3(C=O)CC1C=C(C(C)C)[C@@]23C(=O)O | 1 (≈ 2.41 µM) | 0.5 (≈ 1.2 µM) | 8 | 4 (≈ 9.63 µM) | –
CC(C)C1=CC2CC3(C=O)[C@@H]4CC[C@@H](C)[C@H]4CC2(C2=NOC4C2CCN4Cc2ccccc2)[C@]13C(=O)O (stereo not given in full) | > 128 | > 128 | – | – | –
CC(C)C1=CC2CC3(C=O)[C@@H]4CC[C@@H](C)[C@H]4CC2(c2cc(-c4ccccc4)on2)[C@]13C(=O)O | 0.25 (≈ 0.561 µM) | 8 (≈ 18 µM) | – | – | –
COC1C(O)[C@H](O)[C@H](OC[C@@]23C[C@@H]4[C@H](C)CC[C@H]4[C@@]4(C=O)CC2C=C(C(C)C)[C@@]34C(=O)O)O[C@@H]1C (single isomer, unassigned) [SORDARIN] | > 128 | 16 (≈ 32.5 µM) | 10 | 167 (≈ 339 µM) | –
